Test results taken from US6362336B1, “Chemical compounds” (Zeneca Limited, priority 1995, dated 2002).

Q: For `COc1cc2c(Nc3ccc(C)c(O)c3)ncnc2cc1OCc1ccncc1.Cl`, which melting point is on record?
A: 249 to 251 °C

Q: With `COc1cc2c(Nc3ccc(C)c(O)c3)ncnc2cc1OCc1c(C)noc1C.Cl` as the molecule, how does the melting point read?
A: 252 to 254 °C

Q: Which melting point does the source give for `COc1cc2c(Nc3ccc(C)c(O)c3)ncnc2cc1OCCCc1ccncc1.Cl` here?
A: 278 to 282 °C

Q: For `COc1cc2c(Nc3cc(O)c(C)cc3F)ncnc2cc1OCCCc1ccncc1.Cl`, which melting point is on record?
A: 246 to 248 °C

Q: With `COc1cc2c(Nc3cc(O)c(C)cc3F)ncnc2cc1OCc1ccncc1.Cl` as the molecule, how does the melting point read?
A: 257 to 260 °C

Q: For `COc1cc2c(Nc3cc(O)c(C)cc3F)ncnc2cc1OCc1ccccc1.Cl`, which melting point is on record?
A: 294 to 298 °C

Q: Which melting point does the source give for `COc1cc2c(Nc3ccc(Cl)cc3F)ncnc2cc1OCc1csc(C)n1.Cl` here?
A: 220 to 225 °C

Q: For `COc1cc2c(Nc3cc(O)c(C)cc3F)ncnc2cc1OCCn1ccnc1.Cl`, which melting point is on record?
A: 195 to 220 °C

Q: Which melting point does the source give for `COc1cc2c(Nc3cc(O)c(C)cc3F)ncnc2cc1OCc1ccc(C#N)cc1.Cl` here?
A: 265 to 270 °C

Q: With `COc1cc2c(Nc3ccc(Cl)cc3F)ncnc2cc1OCCc1ccncc1.Cl` as the molecule, how does the melting point read?
A: 189 to 191 °C

Q: With `COc1cc2c(Nc3ccc(Cl)cc3F)ncnc2cc1OCc1cccnc1.Cl` as the molecule, how does the melting point read?
A: 216 to 221 °C

Q: For `COc1cc2c(Nc3ccc(C)c(O)c3)ncnc2cc1OCc1ccccn1.Cl`, which melting point is on record?
A: 236 to 238 °C

Q: With `COc1cc2c(Nc3ccc(Cl)cc3F)ncnc2cc1OCCc1nccn1C.Cl` as the molecule, how does the melting point read?
A: 224 to 229 °C

Q: With `COc1cc2c(Nc3ccc(Cl)cc3F)ncnc2cc1OCc1ccncn1.Cl` as the molecule, how does the melting point read?
A: 237 to 239 °C

Q: Which melting point does the source give for `COc1cc2c(Nc3ccc(Cl)cc3F)ncnc2cc1OCCCN(C)c1ccncc1.Cl` here?
A: 243 to 248 °C

Q: Which melting point does the source give for `COc1cc2c(Nc3ccc(Cl)cc3F)ncnc2cc1OCCN(C)c1ncccn1.Cl` here?
A: 194 to 196 °C

Q: For `COc1cc2c(Nc3cc(O)c(C)cc3F)ncnc2cc1OCc1ccnc(Cl)c1.Cl`, which melting point is on record?
A: 245 to 250 °C

Q: Which melting point does the source give for `COc1cc2c(Nc3ccc(C)c(O)c3)ncnc2cc1OCc1nccn1C.Cl` here?
A: 257 to 260 °C

Q: Which melting point does the source give for `COc1cc2c(Nc3ccc(Cl)cc3F)ncnc2cc1OCc1cc(Cl)[nH]c(=O)c1.Cl` here?
A: 271 to 273 °C (dec.)

Q: With `COc1cc2c(Nc3ccc(C)c(O)c3)ncnc2cc1OCc1csc(C)n1.Cl` as the molecule, how does the melting point read?
A: 243 to 245 °C

Q: With `Cl.Oc1cc(Nc2ncnc3cc(OCc4ccccc4)ccc23)c(F)cc1Cl` as the molecule, how does the melting point read?
A: 253 to 257 °C

Q: With `COc1cc2c(Nc3cc(O)c(Cl)cc3F)ncnc2cc1OCc1ccsc1.Cl` as the molecule, how does the melting point read?
A: 277 to 281 °C

Q: For `COc1cc2c(Nc3ccc(C)c(O)c3)ncnc2cc1OCc1ccsc1.Cl`, which melting point is on record?
A: 246 to 248 °C

Q: Which melting point does the source give for `COc1cc2c(Nc3ccc(Cl)cc3F)ncnc2cc1OCc1csc(NC(C)=O)n1.Cl` here?
A: 194 to 202 °C

Q: With `COc1cc2c(Nc3ccc(C)c(O)c3)ncnc2cc1OCc1csc(NC(C)=O)n1.Cl` as the molecule, how does the melting point read?
A: 202 to 204 °C

Q: For `COc1cc2c(Nc3ccc(Cl)cc3F)ncnc2cc1OCc1ccnc(N(C)C)c1.Cl`, which melting point is on record?
A: 290 °C

Q: Which melting point does the source give for `COc1cc2c(Nc3ccc(C)c(OC(C)=O)c3)ncnc2cc1OCc1cccnc1` [Example 2, 4-(3-acetoxy-4-methylanilino)-6-methoxy-7-(3-pyridylmethoxy)quinazoline] here?
A: 113 to 115 °C

Q: With `COc1cc2c(Nc3ccc(C)c(O)c3)ncnc2cc1OCc1cccnc1` [Example 3, 4-(3-hydroxy-4-methylanilino)-6-methoxy-7-(3-pyridylmethoxy)quinazoline] as the molecule, how does the melting point read?
A: 258 to 259 °C

Q: With `COc1cc2c(Nc3ccc(C)c(O)c3)ncnc2cc1OCc1ccncn1` [Example 5, 4-(3-hydroxy-4-methylanilino)-6-methoxy-7-(pyrimidin-4-ylmethoxy)quinazoline] as the molecule, how does the melting point read?
A: 290 to 291 °C

Q: For `COc1cc2c(Nc3ccc(Cl)cc3F)ncnc2cc1OCCOc1ccncc1` [Example 17, 4-(4-chloro-2-fluoroanilino)-6-methoxy-7-(2-(4-pyridyloxy)ethoxy)quinazoline], which melting point is on record?
A: 200 to 202 °C

Q: Which melting point does the source give for `COc1cc2c(Nc3ccc(Cl)cc3F)ncnc2cc1OCCn1ccccc1=O` [Example 18, 4-(4-chloro-2-fluoroanilino)-6-methoxy-7-[2-(2-oxo-1,2-dihydro-1-pyridyl)ethoxy]quinazoline] here?
A: 209 to 211 °C

Q: With `COc1cc2c(Nc3ccc(Cl)cc3F)ncnc2cc1OCCCn1ccc(=O)cc1` [Example 19, 4-(4-chloro-2-fluoroanilino)-6-methoxy-7-[3-(4-oxo-1,4-dihydro-1-pyridyl)propoxy]quinazoline] as the molecule, how does the melting point read?
A: > 250 °C

Q: With `COc1cc2c(Nc3ccc(Cl)cc3F)ncnc2cc1OCc1ccccn1` [Example 39, 4-(4-chloro-2-fluoroanilino)-6-methoxy-7-((2-pyridyl)methoxy)quinazoline] as the molecule, how does the melting point read?
A: 215 to 218 °C

Q: With `COc1cc2c(Oc3ccc(Cl)cc3F)ncnc2cc1OCc1ccncc1` [Example 44, 4-(4-chloro-2-fluorophenoxy)-6-methoxy-7-((4-pyridyl)methoxy)quinazoline] as the molecule, how does the melting point read?
A: 197 to 198 °C

Q: With `COc1cc2c(Nc3ccc(Cl)cc3F)ncnc2cc1OCCN(C)c1cc(C)nc(C)c1` [Example 46, 4-(4-chloro-2-fluoroanilino)-7-(2-(N-(2,6-dimethyl-4-pyridyl)-N-methylamino)ethoxy)-6-methoxyquinazoline] as the molecule, how does the melting point read?
A: 208 to 212 °C

Q: With `COc1cc2c(Nc3ccc(Cl)cc3F)ncnc2cc1OCc1ccnc(Br)c1` [Example 59, 7-((2-bromo-4-pyridyl)methoxy)-4-(4-chloro-2-fluoroanilino)-6-methoxyquinazoline] as the molecule, how does the melting point read?
A: 210 to 212 °C

Q: Which melting point does the source give for `COc1cc2c(Nc3ccc(Cl)cc3F)ncnc2cc1OCc1ccnc(C#N)c1` [Example 60, 4-(4-chloro-2-fluoroanilino)-7-((2-cyano-4-pyridyl)methoxy)-6-methoxyquinazoline] here?
A: 209 to 213 °C

Q: Which melting point does the source give for `COc1cc(COc2cc3ncnc(Nc4ccc(Cl)cc4F)c3cc2OC)ccn1` [Example 62, 4-(4-chloro-2-fluoroanilino)-7-((2-methoxy-4-pyridyl)methoxy)-6-methoxyquinazoline] here?
A: 202 to 204 °C

Q: Which melting point does the source give for `COc1cc2c(Nc3ccc(Cl)cc3F)ncnc2cc1OCc1ccnc(C)c1` [Example 63, 4-(4-chloro-2-fluoroanilino)-6-methoxy-7-((2-methyl-4-pyridyl)methoxy)quinazoline] here?
A: 221 to 224 °C

Q: Which melting point does the source give for `COc1cc2c(Nc3ccc(Cl)cc3F)ncnc2cc1OCCCn1ccccc1=O` [Example 65, 4-(4-chloro-2-fluoroanilino)-6-methoxy-7-(3-(2-oxo-1,2-dihydro-1-pyridyl)propoxy)quinazoline] here?
A: 216 to 218 °C

Q: Which melting point does the source give for `COc1cc2c(Nc3ccc(Cl)cc3F)ncnc2cc1OCCCSc1nccn1C` [Example 66, 4-(4-chloro-2-fluoroanilino)-6-methoxy-7-(3-(1-methylimidazol-2-ylthio)propoxy)quinazoline] here?
A: 199 to 201 °C

Q: With `COc1cc2c(Nc3ccc(Cl)cc3F)ncnc2cc1OCCCOc1ccncc1` [Example 67, 4-(4-chloro-2-fluoroanilino)-6-methoxy-7-(3-(4-pyridyloxy)propoxy)quinazoline] as the molecule, how does the melting point read?
A: 138 to 140 °C

Q: For `COc1cc2c(Nc3ccc(Cl)cc3F)ncnc2cc1OCCSc1ccncc1` [Example 68, 4-(4-chloro-2-fluoroanilino)-6-methoxy-7-(2-(4-pyridylthio)ethoxy)quinazoline], which melting point is on record?
A: 182 to 186 °C

Q: For `COc1cc2c(Nc3ccc(Cl)cc3F)ncnc2cc1OCCOc1cccnc1` [Example 69, 4-(4-chloro-2-fluoroanilino)-6-methoxy-7-(2-(3-pyridyloxy)ethoxy)quinazoline], which melting point is on record?
A: 188 to 190 °C

Q: Which melting point does the source give for `CCOC(=O)c1cc(COc2cc3ncnc(Nc4ccc(Cl)cc4F)c3cc2OC)ccn1` [Example 93, 4-(4-chloro-2-fluoroanilino)-7-(2-ethoxycarbonylpyrid-4-yl)methoxy-6-methoxyquinazoline] here?
A: 212 to 214 °C
